# Laboratory results as given in patent publication US20140113899A1 (priority 2011, published 2014).
# Like-named read-outs stand apart in the source and are kept apart here.
# Assays:
# Fusarium graminearum [1] = format: in vivo; conditions: wettable powder containing only the compound, 500 mg/L, sprayed at 1,000 L/ha; fourth to seventh days after inoculation
# Pythium aphanidermatum = assay: Test Example 19: in vitro antimicrobial activity test with metalaxyl and Compound I-1; format: cell-based; conditions: Compound I-1 0.005 ppm alone
# Glomerella cingulata = assay: Test Example 4: in vitro antimicrobial activity test with bixafen and Compound I-1; format: cell-based
# Microdocum nivale [2] = assay: Test Example 14: in vitro antimicrobial activity test with prothioconazole and Compound I-1
# Microdocum nivale [3] = assay: Test Example 10: in vitro antimicrobial activity test with penthiopyrad and Compound I-1
# Method: (§1) In the test, a flora disk of 4 mm in diameter was cut from an area around a colony of Microdocum nivale pre-cultured in advance in a pre-culture PDA medium, and Microdocum nivale was inoculated on the PDA medium where chemical agents were mixed. After culturing at 25° C. for 3 days, a diameter of a grown colony was measured. Then, a mycelial growth inhibition ratio was calculated by comparing the diameter of this grown colony with a diameter of a colony on a medium without the chemical agents. As in Test Example 1, a cooperative effect was judged by use of Colby's formula.
# Then, a mycelial growth inhibition ratio against Microdocum nivale was obtained.
# Puccinia recondida = assay: Test Example 7: controlling effect of isopyrazam and Compound I-1 on wheat brown rust; format: in vivo
# Method: Isopyrazam and Compound I-1 were mixed at a given ratio and a test for a cooperative effect against wheat brown rust was carried out. First, a chemical suspension containing isopyrazam and Compound I-1 were prepared and sprayed on a pot of a wheat plant at two leaves stage so that thus sprayed isopyrazam and Compound I-1 became a predetermined dosage. Then, after the pot was left for approximately one hour at a room temperature so that the plant body dries, Puccinia recondida was inoculated by spraying an urediniospore suspended solution (1×10^5/ml) of Puccinia recondida. Then, the pot was kept in a wet chamber at 20° C. for 15 hours, and after 14 days, onset of disease was examined by a disease-onset area index. Here, the test was conducted by use of one plot pot.
# Microdocum nivale [4] = assay: Test Example 9: in vitro antimicrobial activity test with benodanil and Compound I-1
# Method: as §1
# [5] = system: Pseudocercoporella herpotrichoides; assay: Test Example 16: in vitro antimicrobial activity test with thiophanate-methyl and Compound I-1; format: cell-based
# Botrytis cinere = assay: Test Example 11: in vitro antimicrobial activity test with azoxystrobin and Compound I-1; format: cell-based
# Text: Then, a mycelial growth inhibition ratio against Botrytis cinere was obtained.
# Gaeumannomyces graminis = assay: Test Example 13: in vitro antimicrobial activity test with prochloraz and Compound I-1; format: cell-based
# Text: Then, a mycelial growth inhibition ratio against Gaeumannomyces graminis was obtained.
# Fusarium graminearum [6] = format: in vivo
# Rhizoctonia solani = assay: Test Example 18: in vitro antimicrobial activity test with chlorothalonil and Compound I-1; format: cell-based
# Alternaria alternata = assay: Test Example 15: in vitro antimicrobial activity test with fenpropimorph and Compound I-1; format: cell-based
# Text: Then, a mycelial growth inhibition ratio against Alternaria alternata was obtained.
# Fusarium graminearum [7] = format: in vivo; remark: listed apart in the source
# Fusarium graminearum [8] = format: in vivo; remark: listed apart in the source
# Fusarium graminearum [9] = format: in vivo; conditions: Fluopyram 20 g/ha alone
# [10] = compound 25 g/ha alone (Metconazole 0 g/ha)
# [11] = compound 50 g/ha alone (Metconazole 0 g/ha)
# [12] = compound 75 g/ha alone (Metconazole 0 g/ha)
smiles,measurement,setting,value
"C[C@@]1(CCl)CC[C@H](Cc2ccc(Cl)cc2)[C@@]1(O)Cn1cncn1 (racemic) [Compound I-1, (1RS,2SR,5SR)-5-(4-chlorobenzyl)-2-chloromethyl-2-methyl-1-(1H-1,2,4-triazole-1-ylmethyl)cyclopentanol]",protective value,Fusarium graminearum [1],≥ 90%
same,Mycelial Growth Inhibition Ratio % Measured Value,Pythium aphanidermatum,9%
same,Mycelial Growth Inhibition Ratio % Measured Value,Glomerella cingulata; Compound (I) 0.005 ppm alone,13%
same,Mycelial Growth Inhibition Ratio % Measured Value,Glomerella cingulata; Compound (I) 0.02 ppm alone,23%
same,Mycelial Growth Inhibition Ratio % Measured Value,Microdocum nivale [2]; Compound I-1 0.078 ppm alone,8%
same,Mycelial Growth Inhibition Ratio % Measured Value,Microdocum nivale [2]; Compound I-1 0.313 ppm alone,34%
same,Mycelial Growth Inhibition Ratio % Measured Value,Microdocum nivale [3]; Compound I-1 0.005 ppm alone,5%
same,Mycelial Growth Inhibition Ratio % Measured Value,Microdocum nivale [3]; Compound I-1 0.02 ppm alone,10%
same,Mycelial Growth Inhibition Ratio % Measured Value,Microdocum nivale [3]; Compound I-1 0.078 ppm alone,12%
same,Actual Protective Value,Puccinia recondida; Compound I-1 0.1875 g/ha alone,13
same,Actual Protective Value,Puccinia recondida; Compound I-1 0.375 g/ha alone,37
same,Actual Protective Value,Puccinia recondida; Compound I-1 0.75 g/ha alone,67
same,Actual Protective Value,Puccinia recondida; Compound I-1 1.5 g/ha alone,80
same,Actual Protective Value,Puccinia recondida; Compound I-1 3 g/ha alone,93
same,Mycelial Growth Inhibition Ratio % Measured Value,Microdocum nivale [4]; Compound I-1 0.078 ppm alone,8%
same,Mycelial Growth Inhibition Ratio % Measured Value,[5]; Compound I-1 0.078 ppm alone,3%
same,Mycelial Growth Inhibition Ratio % Measured Value,[5]; Compound I-1 0.313 ppm alone,42%
same,Mycelial Growth Inhibition Ratio % Measured Value,Botrytis cinere; Compound I-1 0.02 ppm alone,25%
same,Mycelial Growth Inhibition Ratio % Measured Value,Botrytis cinere; Compound I-1 0.078 ppm alone,47%
same,Mycelial Growth Inhibition Ratio % Measured Value,Gaeumannomyces graminis; Compound I-1 0.02 ppm alone,0%
same,Mycelial Growth Inhibition Ratio % Measured Value,Gaeumannomyces graminis; Compound I-1 0.078 ppm alone,17%
same,Mycelial Growth Inhibition Ratio % Measured Value,Gaeumannomyces graminis; Compound I-1 0.313 ppm alone,74%
same,Actual Protective Value,Fusarium graminearum [6]; Compound (I) 4 g/ha alone,9.4
same,Actual Protective Value,Fusarium graminearum [6]; Compound (I) 8 g/ha alone,12.9
same,Mycelial Growth Inhibition Ratio % Measured Value,Rhizoctonia solani; Compound I-1 1.25 ppm alone,68%
same,Mycelial Growth Inhibition Ratio % Measured Value,Alternaria alternata; Compound I-1 0.02 ppm alone,3%
same,Mycelial Growth Inhibition Ratio % Measured Value,Alternaria alternata; Compound I-1 0.078 ppm alone,24%
same,Mycelial Growth Inhibition Ratio % Measured Value,Alternaria alternata; Compound I-1 0.313 ppm alone,50%
"C[C@]1(CCl)CC[C@@H](Cc2ccc(F)cc2)[C@]1(O)Cn1cncn1 (racemic) [Compound I-11, (1RS,2SR,5 SR)-2-chloromethyl-5-(4-fluorobenzyl)-2-methyl-1-(1H-1,2,4-triazole-1-ylmethyl)cyclopentanol]",Actual Protective Value,Fusarium graminearum [7]; [10],25.6
same,Actual Protective Value,Fusarium graminearum [7]; [11],56.7
same,Actual Protective Value,Fusarium graminearum [7]; [12],66.7
"C[C@]1(CCl)CC[C@@H](Cc2ccccc2)[C@]1(O)Cn1cncn1 (racemic) [Compound I-12, (1RS,2SR,5SR)-2-chloromethyl-5-benzyl-2-methyl-1-(1H-1,2,4-triazole-1-ylmethyl)cyclopentanol]",Actual Protective Value,Fusarium graminearum [7]; [10],40.0
same,Actual Protective Value,Fusarium graminearum [7]; [11],65.6
same,Actual Protective Value,Fusarium graminearum [7]; [12],75.6
CO/C=C(/C(=O)OC)c1ccccc1Oc1cc(Oc2ccccc2C#N)ncn1 [Azoxystrobin],Mycelial Growth Inhibition Ratio % Measured Value,Botrytis cinere; Azoxystrobin 0.1575 ppm alone,41%
same,Mycelial Growth Inhibition Ratio % Measured Value,Botrytis cinere; Azoxystrobin 0.63 ppm alone,60%
same,Mycelial Growth Inhibition Ratio % Measured Value,Botrytis cinere; Azoxystrobin 2.5 ppm alone,69%
same,Mycelial Growth Inhibition Ratio % Measured Value,Botrytis cinere; Azoxystrobin 10 ppm alone,71%
O=C(Nc1ccccc1)c1ccccc1I [Benodanil],Mycelial Growth Inhibition Ratio % Measured Value,Microdocum nivale [4]; Benodanil 0.0393 ppm alone,0%
same,Mycelial Growth Inhibition Ratio % Measured Value,Microdocum nivale [4]; Benodanil 0.1575 ppm alone,0%
same,Mycelial Growth Inhibition Ratio % Measured Value,Microdocum nivale [4]; Benodanil 0.63 ppm alone,0%
same,Mycelial Growth Inhibition Ratio % Measured Value,Microdocum nivale [4]; Benodanil 2.5 ppm alone,0%
same,Mycelial Growth Inhibition Ratio % Measured Value,Microdocum nivale [4]; Benodanil 10 ppm alone,4%
Cn1cc(C(=O)Nc2ccc(F)cc2-c2ccc(Cl)c(Cl)c2)c(C(F)F)n1 [Bixafen],Mycelial Growth Inhibition Ratio % Measured Value,Glomerella cingulata; Bixafen 0.0393 ppm alone,5%
same,Mycelial Growth Inhibition Ratio % Measured Value,Glomerella cingulata; Bixafen 0.1575 ppm alone,7%
same,Mycelial Growth Inhibition Ratio % Measured Value,Glomerella cingulata; Bixafen 0.63 ppm alone,7%
same,Mycelial Growth Inhibition Ratio % Measured Value,Glomerella cingulata; Bixafen 2.5 ppm alone,16%
same,Mycelial Growth Inhibition Ratio % Measured Value,Glomerella cingulata; Bixafen 10 ppm alone,38%
O=C(Nc1ccccc1-c1ccc(Cl)cc1)c1cccnc1Cl [Boscalid],Actual Protective Value,Fusarium graminearum [8]; Boscalid 20 g/ha alone,0
same,Actual Protective Value,Fusarium graminearum [8]; Boscalid 40 g/ha alone,4
same,Actual Protective Value,Fusarium graminearum [8]; Boscalid 60 g/ha alone,15
same,Actual Protective Value,Fusarium graminearum [8]; Boscalid 80 g/ha alone,8
N#Cc1c(Cl)c(Cl)c(Cl)c(C#N)c1Cl [Chlorothalonil],Mycelial Growth Inhibition Ratio % Measured Value,Rhizoctonia solani; Chlorothalonil 0.0393 ppm alone,0%
same,Mycelial Growth Inhibition Ratio % Measured Value,Rhizoctonia solani; Chlorothalonil 0.1575 ppm alone,15%
same,Mycelial Growth Inhibition Ratio % Measured Value,Rhizoctonia solani; Chlorothalonil 0.63 ppm alone,74%
same,Mycelial Growth Inhibition Ratio % Measured Value,Rhizoctonia solani; Chlorothalonil 2.5 ppm alone,84%
same,Mycelial Growth Inhibition Ratio % Measured Value,Rhizoctonia solani; Chlorothalonil 10 ppm alone,98%
"OC(CC1CC1(Br)Br)(Cn1cncn1)C1(Cl)CC1 (stereo not shown) [Compound XVII-2, 2-(1-chlorocyclopropyl)-1-(2,2-dibromocyclopropyl)-3-(1H-1,2,4-triazole-1-yl)propane-2-ol]",protective value,Fusarium graminearum [1],≥ 90%
CC(Cc1ccc(C(C)(C)C)cc1)CN1C[C@@H](C)O[C@@H](C)C1 (stereo partly shown) [Fenpropimorph],Mycelial Growth Inhibition Ratio % Measured Value,Alternaria alternata; Fenpropimorph 0.0393 ppm alone,0%
same,Mycelial Growth Inhibition Ratio % Measured Value,Alternaria alternata; Fenpropimorph 0.1575 ppm alone,0%
O=C(NCCc1ncc(C(F)(F)F)cc1Cl)c1ccccc1C(F)(F)F [Fluopyram],Actual Protective Value,Fusarium graminearum [9],0
